Experimental data: patent US9932410B2, “Human neutralizing anti-kit antibodies and uses thereof” (INSERM (Institut National de la Sante et de la Recherche …, priority 2013, dated 2018)
“Also recorded” adds a separate entry of the source.

How the values were obtained:
[1] = tested on: HMC1.2 (KIT V560G D816V) cells; test: Proliferation assay (MTS cell viability) on HMC1.2 cells
[2] = tested on: HMC1.1 (KITV560G) cells; test: Proliferation assay (MTS cell viability) on HMC1.1 cells; format: cell-based, human
Protocol: FIG. 5: Antibody modulation of oncogenic KIT. (A) HMC1.1 or HMC1.2 cells were incubated in IMDM 1% serum in the presence of anti-KIT antibodies or control antibody as indicated at 5 μg/mL (light grey) or 50 μg/mL (medium grey) or without antibody (dark grey). Cell viability is expressed in % compared to non treated cells. HMC1.1 or HMC1.2 cells were incubated in IMDM 10% serum in the presence of anti-KIT antibodies or control antibody (10 μg/mL) for 1, 2 or 24 hrs. As indicated and analyzed (B) by FACS using 104D2 anti-KIT antibody or (C) by western blot using anti-KIT and phospho-specific anti-KIT antibodies. (D) Three days treatment with anti-KIT antibodies maintained a low level of KIT on both mastocytoma cell lines.
UT-7 were seeded at 10^4 cells/well and treated for 4 days with 2D1, 3G1, H7 or Bot irrelevant antibody at 5 or 50 μg/mL […] in the presence of EPO or CHO-KL supernatant diluted 500 times. HMC1.1 and 1.2 were treated the same but for 7 days and with 1% SVF instead of 10% and without cytokines. Cell viability was estimated with MTS assay (PROMEGA) as recommended by the manufacturer.

[3] = biological target: T1, KIT surface level on UT-7/EPO cells (wild type KIT) (Homo sapiens, UniProt P10721); test: Internalization assay: KIT surface level by FACS with 104D2 on UT-7/EPO cells; format: cell-based
T1 construct: endogenous in cells; host or cells: UT-7/EPO human erythroleukemic cells
T1 sequence (P10721 26-976): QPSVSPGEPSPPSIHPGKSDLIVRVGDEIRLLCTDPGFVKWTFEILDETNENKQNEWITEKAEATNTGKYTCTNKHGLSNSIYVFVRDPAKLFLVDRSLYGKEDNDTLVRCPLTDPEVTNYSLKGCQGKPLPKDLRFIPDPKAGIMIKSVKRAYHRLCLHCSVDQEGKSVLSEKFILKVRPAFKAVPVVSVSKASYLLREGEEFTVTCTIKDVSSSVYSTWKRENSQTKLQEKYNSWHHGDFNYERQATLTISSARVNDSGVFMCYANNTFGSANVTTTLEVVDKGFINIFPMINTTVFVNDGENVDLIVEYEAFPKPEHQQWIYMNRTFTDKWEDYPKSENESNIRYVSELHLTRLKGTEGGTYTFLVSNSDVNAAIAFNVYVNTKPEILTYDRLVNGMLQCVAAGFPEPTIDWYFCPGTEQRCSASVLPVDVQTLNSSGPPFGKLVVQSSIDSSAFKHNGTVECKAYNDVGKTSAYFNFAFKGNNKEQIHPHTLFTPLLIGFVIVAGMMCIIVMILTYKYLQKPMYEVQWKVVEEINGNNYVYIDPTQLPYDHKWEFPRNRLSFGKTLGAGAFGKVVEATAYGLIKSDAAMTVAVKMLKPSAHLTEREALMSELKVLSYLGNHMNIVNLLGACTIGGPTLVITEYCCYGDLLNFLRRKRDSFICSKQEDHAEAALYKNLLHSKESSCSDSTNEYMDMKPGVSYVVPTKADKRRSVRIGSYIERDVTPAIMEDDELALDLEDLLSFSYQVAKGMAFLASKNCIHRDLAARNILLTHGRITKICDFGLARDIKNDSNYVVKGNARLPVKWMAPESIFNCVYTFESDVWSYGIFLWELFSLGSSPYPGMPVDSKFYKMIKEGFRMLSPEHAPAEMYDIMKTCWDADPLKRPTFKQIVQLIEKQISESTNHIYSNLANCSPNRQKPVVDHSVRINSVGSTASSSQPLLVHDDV

[4] = biological target: T2, biotinylated KIT-ECD (Homo sapiens, UniProt P10721); test: Affinity measurement using yeast display of scFv with biotinylated KIT-ECD; format: binding; conditions: scFv displayed on yeast; for Kd: affinity matured variants, read-out: intrinsic Kd
T2 construct: KIT-ECD, amino acid 26 to 509, P10721 UniProtKB/Swiss-Prot; 6His (C); biotin (label); made in house; host or cells: insect cells (High Five, baculovirus)
T2 sequence (P10721 26-509): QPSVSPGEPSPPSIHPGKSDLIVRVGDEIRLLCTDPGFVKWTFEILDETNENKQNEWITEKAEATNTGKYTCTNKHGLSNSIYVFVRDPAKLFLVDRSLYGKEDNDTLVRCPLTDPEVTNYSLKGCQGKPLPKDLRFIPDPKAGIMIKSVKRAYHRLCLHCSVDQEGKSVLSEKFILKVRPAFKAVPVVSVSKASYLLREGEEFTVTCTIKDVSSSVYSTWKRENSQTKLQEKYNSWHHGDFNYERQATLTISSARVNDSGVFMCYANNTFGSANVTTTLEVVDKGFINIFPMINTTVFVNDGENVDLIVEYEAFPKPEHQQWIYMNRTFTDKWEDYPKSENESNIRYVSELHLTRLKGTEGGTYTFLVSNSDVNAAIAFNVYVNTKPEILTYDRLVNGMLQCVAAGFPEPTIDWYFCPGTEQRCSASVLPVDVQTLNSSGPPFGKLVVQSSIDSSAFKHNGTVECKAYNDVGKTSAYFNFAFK
Text: Cells were then put on ice, washed with ice cold FACS buffer and bound antigen was detected with Streptavin conjugated to PE.

| Molecule | toxicity of TKI to HMC1.2 cells [1] | toxicity of TKI to HMC1.1 cells [2] | KIT surface levels, imatinib treatment alone ([3]; UT-7/EPO cells with EPO, Imatinib 1 μM, 4 hrs) | effect on SCF-induced KIT surface level decrease ([3]; UT-7/EPO cells, imatinib with SCF) | concentration of Ag at which saturation is reached [4] [nM] | Kd [4] [nM] |
| --- | --- | --- | --- | --- | --- | --- |
| Cc1nc(Nc2ncc(C(=O)Nc3c(C)cccc3Cl)s2)cc(N2CCN(CCO)CC2)n1 [dasatinib, N-(2-chloro-6-methylphenyl)-2-[[6-[4-(2-hydroxyethyl)-1-piperazinyl]-2-methyl-4-pyrimidinyl]amino]-5-thiazole-carboxamide monohydrate] | toxic to HMC1.2 cells | toxic to HMC1.1 cells | – | – | – | – |
| Cc1ccc(NC(=O)c2ccc(CN3CCN(C)CC3)cc2)cc1Nc1nccc(-c2cccnc2)n1 [imatinib, 4-[(4-methylpiperazin-1-yl)methyl]-N-(4-methyl-3-{[4-(pyridin-3-yl)pyrimidin-2-yl]amino}phenyl)benzamide] | resistance of the D816V mutant to imatinib | toxic to HMC1.1 cells | decreased KIT surface levels; also recorded: reduced KIT level at the cell surface | inhibited SCF-induced KIT surface level decrease | – | – |
| 3G1-A2: affinity matured variant of 3G1, same VH (SEQ ID NO: 9), VL SEQ ID NO: 30 (antibody, V domains shown, Synthetic 3G1 VH chain; Synthetic 3G1-A2 VL chain) VH: MAQVQLVESWGGVAQPGRSLRLSCAASGFTFSSFAMHWVRQAPGKGLEWVAVTSYDGSNEYYADSVKGRFTISRDNSKNTLYLQMNSLRAEDTAVYYCAKAMVRGVTFGDLDYWGQGTLVTVSS VL: SSELTQDPAVSVALGQTVRKTCQGDSLKSYYASWYQQKPGQAPVLVIYGENSRPSGIPDRFSGSSSGNTASLTITGAQAEDEADYYCCSRATGGYHRIFGGGTKLTVLG | – | – | – | – | 10 | 1.7 |
| 2D1-C7: affinity matured variant of 2D1, same VH (SEQ ID NO: 1), VL SEQ ID NO: 26 (antibody, V domains shown, Synthetic 2D1 VH chain; Synthetic 2D1-C7 VL chain) VH: MAQVKLQESGGGLVQPGGSLRLSCAASGFTFDSYAMSWVRQAPGKGLEWVSYITSSSSTIYYVDSVKGRFTISRDNAKNSLYLQMNSLRDEDTAVYYCARLRNSEGYWYFDLWGRGTLVTVSS VL: SQSVLTQDPAVSVALGQTVRITCQGDSLRSYYASWYQQKPGQAPLLVMYGENIRPSGIPDRFSGSTSGNSASLTITGAQAEDEADYYCNSRDSSGNHLNWVFGGGTKLTVLG | – | – | – | – | 10 | 4.2 |
